Assay results: patent publication US20210052616A1, “ANTHRACYCLINE ENCAPSULATED WITH A POLYSACCHARIDE FOR USE IN THE TREATMENT OF TUMOURS” (NANOVELOS S.A, priority 2018, published 2021)
“Also recorded” adds a separate entry of the source.

Columns and labels:
[1] = MTT cytotoxicity test, HeLa; assay type: cell-based; settings: human, HeLa cells; for viability at 24 h, 125000 ng/ml NPs (pure drug equimolar): 1.25E+05 ng/ml NPs (pure drug equimolar); for viability at 24 h, 25000 ng/ml NPs (pure drug equimolar): 2.50E+04 ng/ml NPs (pure drug equimolar); for viability at 24 h, 50000 ng/ml NPs (pure drug equimolar): 5.00E+04 ng/ml NPs (pure drug equimolar)
Source text: (§1) In this test, […] present in the cells converts the soluble tetrazolium salt (3-4,5-dimethylthiazol-2-yl)-2,5-diphenyltetrazolium bromide) into a reduced form. The reaction yields water-insoluble purple crystalline formazan. The number of crystals formed depends on the enzyme activity so that it is directly proportional to the number of viable cells in the sample. Spectrophotometric measurement requires the use of an organic solvent to dissolve the crystals obtained (isopropanol). The change in colour intensity is measured by spectrophotometry at 570 nm wavelength. The test was performed for a number of dilutions (9) of nanoparticle solutions containing the tested anthracycline. The baseline concentration of nanoparticles for MTT tests was 2.5 mg of nanoparticles/ml. The results were compared to cytotoxicity results obtained for pure drugs with equimolar drug concentration (equal to the concentration encapsulated in nanoparticles). The study was also performed for drug-free nanoparticles (the carrier itself was obtained similarly to the nanoparticles with the drug). Cells not exposed to toxic substances were used as a control for toxicity studies.
(§2) After reaching 85-90% confluence, the cells were trypsinised using a 0.25% trypsin solution. The cells were then centrifuged (1200 rpm, 5 min.) and suspended in a culture medium suitable for a particular cell line. […] The cells were plated at a concentration of 1000 cells/100 μl of medium per culture well (96-well plates). The prepared plates were incubated (37° C./5% CO2/22 h to 26 h). Subsequently, the culture medium was replaced with a fresh one (100 μl) containing the appropriate concentration of the tested nanoparticles and set aside for 24 h (37° C./5% CO2). After the lapse of the test time, the medium was removed and replaced with 50 μl of an MTT reagent solution at a concentration of 1 mg/ml. The plate was incubated for 2 hours (37° C./5% CO2). Subsequently, the MTT solution was removed, and 100 μl of isopropanol was added. After shaking the plate on the shaker for 2 minutes, the results for 570 nm wavelength were read (reference value of 650 nm). The mean value of absorbance read OD570 of the cells not exposed to a toxic agent (control) should be above 0.7 [see literature item 206].
(§3) A decrease in the number of viable cells causes a decrease in metabolic activity in the sample. This reduction directly correlates with the amount of blue and purple formazan formed, monitored basing on the optical density at 570 nm. The following equation (C.1) is used to calculate viability reduction compared to control:
(§4) where: • OD570e is the mean value of the measured absorbance of the test samples; • OD570b is the mean value of the measured absorbance of the control.
(§5) The results obtained were statistically analysed using the Dixon Q test.

HeLa cell line = test: MTT cytotoxicity test, HeLa; assay type: cell-based; settings: 24 h
Source text: as §1, §2, §3, §4, §5

[2] = to limit side effects; cited from earlier work
AU565 = test: MTT cytotoxicity test, AU565; assay type: cell-based; settings: 24 h
Source text: as §1, with “The results were compared to cytotoxicity results obtained for pure drugs with equimolar drug concentration (equal to the concentration encapsulated in nanoparticles).” left out
as §2, with “After shaking the plate on the shaker for 2 minutes, the results for 570 nm wavelength were read (reference value of 650 nm).” left out
as §3, §4, §5

[3] = 10 mg/kg bw every 3 days, following 3 administrations
Source text: (§6) Following Example 3, mice were obtained constituting an ovarian tumour test model, which were divided into 3 groups.

internal organs [4] = settings: microscopic images, dose of 10 mg/kg bw
Source text: as §6

mice = test: Survival of mice during treatment (Example 3); assay type: in vivo; settings: EPI 15 mg/kg bw; NPs-EPI 3.75 and […] bw, i.v. every second day
internal organs [5] = test: Macroscopic and histopathological examination of internal organs at necropsy (Example 3); assay type: in vivo, mice
OVCAR3 line cells = test: Anti-tumour efficacy, tumour volume, OVCAR3 xenograft, 10 mg/kg bw every 3 days (Example 4); assay type: in vivo, mice
Source text: as §6

[6] = 1.25E+04 ng/ml NPs (pure drug equimolar)
[7] = 1.25E+06 ng/ml NPs (pure drug equimolar)
[8] = 2.50E+05 ng/ml NPs (pure drug equimolar)
[9] = 2.50E+06 ng/ml NPs (pure drug equimolar)
[10] = 5.00E+03 ng/ml NPs (pure drug equimolar)
[11] = 5.00E+05 ng/ml NPs (pure drug equimolar)
[12] = AU565, 1.25E+04 ng/ml NPs (pure drug equimolar)
[13] = AU565, 1.25E+05 ng/ml NPs (pure drug equimolar)
[14] = AU565, 2.50E+04 ng/ml NPs (pure drug equimolar)
[15] = AU565, 2.50E+05 ng/ml NPs (pure drug equimolar)
[16] = AU565, 2.50E+06 ng/ml NPs (pure drug equimolar)
[17] = AU565, 5.00E+03 ng/ml NPs (pure drug equimolar)
[18] = AU565, 5.00E+04 ng/ml NPs (pure drug equimolar)
[19] = AU565, 5.00E+05 ng/ml NPs (pure drug equimolar)
[20] = 10 mg/kg bw every 3 days, group average

`COc1cccc2c1C(=O)c1c(O)c3c(c(O)c1C2=O)C[C@@](O)(C(C)=O)C[C@@H]3O[C@H]1C[C@H](N)[C@H](O)[C@H](C)O1` [Dau, daunorubicin] gave a viability at 24 h, 125000 ng/ml NPs (pure drug equimolar) [1] of 7.89%, a viability at 24 h, 25000 ng/ml NPs (pure drug equimolar) [1] of 2.11% and a viability at 24 h, 50000 ng/ml NPs (pure drug equimolar) [1] of 4.14%. The Average viability (HeLa cell line; [6]) was 2.851%, the Average viability (HeLa cell line; [7]) was 107.342% and the Average viability (HeLa cell line; [8]) was 7.579%. For the same compound, the Average viability (HeLa cell line; [9]) was 111.366%, the Average viability (HeLa cell line; [10]) was 2.054% and the Average viability (HeLa cell line; [11]) was 28.287%. The “maximum recommended cumulative dose” value [2] was 500 mg/m^2, the Average viability (AU565; [12]) was 58.57% and the Average viability (AU565; [13]) was 25.83%. It also gave an Average viability (AU565; AU565, 1.25E+06 ng/ml NPs (pure drug equimolar)) of 1.544%, an Average viability (AU565; [14]) of 33.22% and an Average viability (AU565; [15]) of 12.14%. The Average viability (AU565; [16]) was 1.053%, the Average viability (AU565; [17]) was 75.96% and the Average viability (AU565; [18]) was 28.26%. It also gave an Average viability (AU565; [19]) of 3.245%.

Work on `COc1cccc2c1C(=O)c1c(O)c3c(c(O)c1C2=O)C[C@@](O)(C(=O)CO)C[C@@H]3O[C@H]1C[C@H](N)[C@@H](O)[C@H](C)O1` [Epi, epirubicin] yielded a viability at 24 h, 125000 ng/ml NPs (pure drug equimolar) [1] of 12.7%, a viability at 24 h, 25000 ng/ml NPs (pure drug equimolar) [1] of 72.8% and a viability at 24 h, 50000 ng/ml NPs (pure drug equimolar) [1] of 17%. It also gave an Average viability (HeLa cell line; [6]) of 98.38%, an Average viability (HeLa cell line; [7]) of 3.6% and an Average viability (HeLa cell line; [8]) of 14.93%. For the same compound, the Average viability (HeLa cell line; [9]) was 4.21%, the Average viability (HeLa cell line; [10]) was 100.18% and the Average viability (HeLa cell line; [11]) was 7.96%. For the same compound, the “average decrease of body weight” value [3] was 22.55%, the “Appearance of the organ: Tumour” value (internal organs [4]) was “anaplastic lesions, moderate tumour necrosis” and the “Appearance of the organ: Liver” value (internal organs [4]; 10 mg/kg) was “Hyperaemia, features of hepatocyte; also recorded: feathery degeneration, focal necrosis”. The “Appearance of the organ: Reproductive organs” value (internal organs [4]; 10 mg/kg) was “Severe lesions, endometrial hypertrophy,; also recorded: cystic lesions, the growth of Leydig cells”, the “death or survival of the mice during treatment” value (mice) was “resulted in the death of the mice” and the “inflammation and changes of liver and spleen compared to the control group” value (internal organs [5]; OVCAR3 mice) was “severe inflammation and changes in the structure of the liver”. For the same compound, the “Macroscopic evaluation of internal organs: Adrenal glands” value (internal organs [5]; mouse #5, 15 mg/kg bw) was “No visible changes”, the “Macroscopic evaluation of internal organs: Bladder” value (internal organs [5]; mouse #5, 15 mg/kg bw) was “No visible changes” and the “Macroscopic evaluation of internal organs: Brain” value (internal organs [5]; mouse #5, 15 mg/kg bw) was “No visible changes”. For the same compound, the “Macroscopic evaluation of internal organs: Heart” value (internal organs [5]; mouse #5, 15 mg/kg bw) was “No visible changes”, the “Macroscopic evaluation of internal organs: Left kidney” value (internal organs [5]; mouse #5, 15 mg/kg bw) was “Consistency softer than normal” and the “Macroscopic evaluation of internal organs: Liver” value (internal organs [5]; mouse #5, 15 mg/kg bw) was “consistency softer than normal, blood vessels; also recorded: Liver surface colour dark cherry to brown,”. For the same compound, the “Macroscopic evaluation of internal organs: Lung” value (internal organs [5]; mouse #5, 15 mg/kg bw) was “No visible changes”, the “Macroscopic evaluation of internal organs: Pancreas” value (internal organs [5]; mouse #5, 15 mg/kg bw) was “No visible changes” and the “Macroscopic evaluation of internal organs: Reproductive organs” value (internal organs [5]; mouse #5, 15 mg/kg bw) was “No visible changes”. For the same compound, the “Macroscopic evaluation of internal organs: Right kidney” value (internal organs [5]; mouse #5, 15 mg/kg bw) was “Consistency softer than normal”, the “Macroscopic evaluation of internal organs: Spleen” value (internal organs [5]; mouse #5, 15 mg/kg bw) was 1.6 cm × 0.4 cm × 0.1 cm in size, and slightly smaller, dark brown in colour and the “Macroscopic evaluation of internal organs: Stomach” value (internal organs [5]; mouse #5, 15 mg/kg bw) was “No visible changes”. The “Macroscopic evaluation of internal organs: Thymus” value (internal organs [5]; mouse #5, 15 mg/kg bw) was “No visible changes”, the “External appearance of the mouse: skin thick” value (internal organs [5]; mouse #5, EPI/OVCAR3 group, 15 mg/kg bw) was 0.21 mm and the “External appearance of the mouse” value (internal organs [5]; mouse #5, EPI/OVCAR3 group, 15 mg/kg bw, 15 mg/kg) was “Anal area dirty with faeces, mouse; also recorded: cachectic”. It also gave an Average viability (AU565; [12]) of 66.48%, an Average viability (AU565; [13]) of 48.38% and an Average viability (AU565; [14]) of 66.439%. For the same compound, the Average viability (AU565; [15]) was 29.222%, the Average viability (AU565; [16]) was 1.822% and the Average viability (AU565; [17]) was 84.738%. For the same compound, the Average viability (AU565; [18]) was 48.052%, the Average viability (AU565; [19]) was 11.723% and the “Average tumour volume (mm^3) Before necropsy” value (OVCAR3 line cells; 10 mg/kg bw every 3 days (group K), after 3 administrations) was 124.45 ± 57.05 mm^3. The “Average tumour volume (mm^3) Before 1st administration” value (OVCAR3 line cells; [20]) was 143.56 ± 9.22 mm^3, the “Average tumour volume (mm^3) Before 2nd administration” value (OVCAR3 line cells; [20]) was 148.77 ± 41.82 mm^3 and the “Average tumour volume (mm^3) Before 3rd administration” value (OVCAR3 line cells; [20]) was 131.00 ± 42.96 mm^3. For the same compound, the “average increase of tumour volume” value (OVCAR3 line cells; 10 mg/kg bw, after the first dose) was 3.63%.
